Assay [1] deals with T1, human CCR3 (Homo sapiens, UniProt P51677).
T1 sequence (P51677 1-355): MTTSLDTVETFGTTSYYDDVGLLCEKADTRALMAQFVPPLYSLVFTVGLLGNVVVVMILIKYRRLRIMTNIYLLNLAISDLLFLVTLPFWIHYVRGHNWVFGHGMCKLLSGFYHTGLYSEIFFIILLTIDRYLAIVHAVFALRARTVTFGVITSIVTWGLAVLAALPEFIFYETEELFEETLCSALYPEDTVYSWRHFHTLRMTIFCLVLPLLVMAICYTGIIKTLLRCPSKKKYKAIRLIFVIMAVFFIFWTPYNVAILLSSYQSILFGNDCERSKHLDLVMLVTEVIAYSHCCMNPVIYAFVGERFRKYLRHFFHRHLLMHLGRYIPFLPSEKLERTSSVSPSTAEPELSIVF
Briefly: CCR3 SPA-based receptor binding assay. The following applies: [125I]-eotaxin competition, membranes from human CCR3 transfected Y3 cell line. Details: host or cells: Y3 cell line (rat), selected with G418. As to the method: CCR3 SPA-Based Receptor Binding Assay:
The procedure used was disclosed in Dairaghi et al, J. Biol. Chem., 272 (1997), pg. 28206-28209, and is described in detail below.
The source of the CCR3 receptors for this assay was purified membranes from a human CCR3 transfected Y3 cell line. Membranes were prepared by MDS Pharma Services (Bothell, Wash.) as follows. Cells were grown under selection (1 mg/ml G418) in 50-stack cube bioreactors with minimal media recirculation. Cells were harvested with trypsin and washed once with PBS. Cells were resuspended in 20 volumes of ice cold 2.5 mM Tris-HCl, pH 7.4 containing protease inhibitors (0.3 mM PMSF, 3 μg/ml aprotinin, 3 μg/ml luepeptin) and incubated on ice for 15 min. The swollen cells were lysed by vigorous vortexing and large debris was removed by centrifugation (1200 rpm, 5 min., 4° C.). The cleared lysate was subjected to ultra-centrifugation (100,000×g, 1 hr., 4° C.) to pellet the membrane fraction and the membrane fraction was resuspended in 25 mM HEPES, pH 7.6, 75 mM NaCl, 1 mM EDTA. Protease inhibitors were added as described above after a sample was removed for protein determination. The membrane preparation was brought to 6 to 10 mg/ml final concentration and BSA was added to 0.5%. Membranes were stored in 1 ml aliquots (−70° C.). […]

The target in assay [2] is T1, human CCR3. As to the kind of experiment: Intracellular calcium (Calcium flux, FLIPR) assay in CREM3 cells. It is filed as cell-based. More on the design: expressed in transfected cells; host or cells: CREM3 cells (rat Y3 cell line stably expressing human CCR3). The following applies: CREM3 cells (human CCR3 in rat Y3 cell line). As to the method: An IC50 value was interpolated from the dilution series for each compound and used to calculate a Ki value using the following equation: Ki=IC50/(1+[ligand]/Kd) Intracellular Calcium Assay: Cell Culture:
CREM3 cells, in which the human CCR3 receptor is stably expressed in the rat Y3 cell line, were cultured in DMEM high glucose containing 10% FBS, 50 U/ml penicillin, 50 μg/ml streptomycin, 2 mM L-glutamine, 1 mg/ml G418 (Gemini Bioproducts). Cells were cultured in fresh medium every 2 days.
Intracellular calcium levels were measured using a fluorometric imaging plate reader (FLIPR), (Molecular Devices, Sunnyvale Calif.) as described by the manufacturer. CREM3 cells were cultured overnight at 20,000 cells/well in 96 well black-wall clear bottom plates (Packard), precoated with 100 μg/ml poly D-lysine hydrobromide (Sigma). Adherent CREM3 cells were loaded with 4 μM Fluo-3 AM (Molecular Probes, Eugene, Oreg.), in pH 7.4 HBSS without phenol red, containing 20 mM HEPES, 0.5% FBS, 2.5 mM probenecid (Sigma), 0.04% pluronic acid (Molecular Probes) for 1 h at 37° C. […] Fluorescence data was collected at 1 s interval for 60 s, followed by collection at 2 s intervals for 60 s. Background fluorescence was quantitated in wells containing cells but no chemokines and was subtracted from all experimental samples. […]

What is called Ki is the equilibrium dissociation constant of an inhibitor or competing ligand from its target. A lower Ki goes with a stronger hold on the target. Usually IC50 stands for the concentration that gives 50% inhibition.

Consider `COc1ccc(C(=O)N2CCC(N3CC[C@@H](Cc4ccc(Cl)c(Cl)c4)[C@@H](CO)C3)CC2)c2cccnc12` (relative stereo) [Example 2-EE], for which, at human CCR3 [1], the affinity corresponds to a Ki of 2.8 nM. Also, the IC50 on human CCR3 [2] is 3.6 nM.

For the origin of these results see patent US7705153B2, “Bipiperdine derivatives useful as CCR3 antagonists” (Schering Corporation, priority 2004, dated 2010).
